Experiments:
[1] = test system: tested cancer cells (CL1-1, H1299, hTERT-BJ, Ca9-22, HeLa, KJ-1); assay: Cancer cell diagnosis by wide-field fluorescence microscopy; format: cell-based, human; conditions: each type of tested cancer cells; 0.1 μM, 3-6 hours
Description: A wide-field fluorescence microscopy was custom made for diagnosing cancer cells. The microscopy consists of an Ar^+ laser (Coherent Inc. Santa Clara, Calif.) as the light source, a sensitive cooled charged-coupled device (CCD) camera (DV465-UV, Andor Technology, South Windsor, Conn.) for imaging, and two avalanche photodiodes (APDs) for transient photoluminescence measurement. Excitation and imaging were conducted by an oil immersion microscope objective with a numerical aperture of 1.3. A dichroism mirror (Omega) was used to direct the fluorescence into the CCD camera. A holographic notch filter (Oriel) was used to block the backscattered laser light. Images of 250×250 pixels were recorded at a high speed. The imaged area was 50×50 μm^2 and the spatial resolution was about 2 pixels.
The following cells were tested: CL1-1 human lung cancer cells, H1299 lung cancer cells, hTERT-BJ lung cancer cells, Ca9-22 oral cancer cells, HeLa cervical cancer cells, KJ-1 nasopharyngeal cancer cells, HaCaT keratinocyte cells, Detroit-551 skin normal cells, IMR-90 lung normal cells, and BJ-1 lung fibroblast cells. Specifically, cells were incubated with 0.1 μM of compound 2 in a culture medium for 3-6 hours. The non-fixed cells were washed three times with phosphate-buffered saline and then studied under the wide-field fluorescence microscope.

[2] = test system: AT; assay: Pre-stained gel electrophoresis selectivity assay; format: binding; conditions: 0.1 μM compound, 10 μM DNA, 254 nm UV light
Description: (§1) Pre-stained gels were used for selectivity assays. A 0.1 μM compound 2 solution was initially incubated with 10 μM of different DNA solutions for 10 minutes. Gel electrophoresis was then carried out in an electric field of 100 V/cm at 4° C. for 6 hours. All of the pre-stained gels were photographed under 254 nm UV light using a Bio-Rad imaging detector.
(§2) Gels pre-stained with compound 2 were used before running electrophoresis for AT, LD, GC, G10, LQ1, LQ2, LQ4, Tet12, Oxy12, Hum12, Apt, Oxy28, and Hum24. […] This third band is ascribed to be a linear tetramer of Tet12.

[3] = test system: LQ1; assay: Pre-stained gel electrophoresis selectivity assay; format: binding; conditions: 0.1 μM compound, 10 μM DNA, 254 nm UV light
Description: as §1, §2

[4] = test system: Hum12; assay: Pre-stained gel electrophoresis selectivity assay; format: binding; conditions: 0.1 μM compound, 10 μM DNA, 254 nm UV light
Description: as §1, §2

[5] = test system: GC; assay: Pre-stained gel electrophoresis selectivity assay; format: binding; conditions: 0.1 μM compound, 10 μM DNA, 254 nm UV light
Description: as §1, §2

[6] = test system: G10; assay: Pre-stained gel electrophoresis selectivity assay; format: binding; conditions: 0.1 μM compound, 10 μM DNA, 254 nm UV light
Description: as §1, §2

[7] = test system: LD; assay: Pre-stained gel electrophoresis selectivity assay; format: binding; conditions: 0.1 μM compound, 10 μM DNA, 254 nm UV light
Description: as §1, §2

[8] = test system: LQ2; assay: Pre-stained gel electrophoresis selectivity assay; format: binding; conditions: 0.1 μM compound, 10 μM DNA, 254 nm UV light
Description: as §1, §2

[9] = test system: Apt; assay: Pre-stained gel electrophoresis selectivity assay; format: binding; conditions: 0.1 μM compound, 10 μM DNA, 254 nm UV light
Description: as §1, §2

C[n+]1ccc(C=Cc2ccc3[nH]c4ccc(C=Cc5cc[n+](C)cc5)cc4c3c2)cc1.[I-].[I-] [Compound 2, 3,6-bis-(2-(1-methylpyridinium-4-yl)-vinyl)-9H-carbazole diiodide]
percentage of cells exhibiting bright fluorescence in the nucleus [1]: more than 70%
fluorescence band in pre-stained gel [2]: weak fluorescence bands
fluorescence band in pre-stained gel [3]: no fluorescence bands
fluorescence band in pre-stained gel [4]: weak fluorescence bands
fluorescence band in pre-stained gel [5]: no fluorescence bands
fluorescence band in pre-stained gel [6]: no fluorescence bands
fluorescence band in pre-stained gel [7]: weak fluorescence bands
fluorescence band in pre-stained gel [8]: exhibited fluorescence bands
fluorescence band in pre-stained gel [9]: weak fluorescence bands

Source: US7691624B2, “Cancer cell detecting devices” (Academia Sinica, priority 2003, dated 2010)
